By viability, T/C is commonly meant the result in the treated group divided by that in the control group, in per cent.

This passage reports viability, T/C results from PubChem BioAssay AID2060611 (Molecular Pharmacology Branch, DTP, NCI, 2025).
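Note: spheroids exposed to agents for seven days before readout; 100% = DMSO vehicle control viability.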

The subject of one experiment is 628569-122-R-J1-PDC complex spheroid viability. In words: Anticancer human tumor 628569-122-R-J1-PDC patient-derived head and neck squamous carcinoma cell line growth inhibition [CLK]. Conditions: second compound 0.0316 µM; first compound 1 µM; active compounds read low. The essentials:
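Patient-derived tumor cells grown as complex spheroids with HUVEC endothelial cells and mesenchymal stem cells, treated with drug combinations. Concentrations descend in half-log steps from near clinical Cmax, or from 10 microM if Cmax unknown.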
For `O=c1[nH]cc(F)c(=O)[nH]1` + CNC(=O)c1ccc(Nc2nc(OC3CCCC3)c3c(-c4ccc5nc(C)oc5c4)c[nH]c3n2)c(OC)c1, the viability, T/C was 84.8%.
As to `CC1COCCN1c1cc(C2(S(C)(=N)=O)CC2)nc(-c2ccnc3[nH]ccc23)n1` (centres undefined) + CN1CCN(c2cc(C(=O)Nc3cc4cc(-c5cnn(C)c5)ccc4cn3)ccn2)CC1, the viability, T/C is 60.8%.
For `COC1C=CCC(C)C(C)S(=O)(=O)NC(=O)c2ccc3c(c2)N(CC2CCC21)CC1(CCCc2cc(Cl)ccc21)CO3` (centres undefined) + CNC(=O)c1ccc(Nc2nc(OC3CCCC3)c3c(-c4ccc5nc(C)oc5c4)c[nH]c3n2)c(OC)c1, the viability, T/C is 55.4%.
Still for that read-out and setting: the value for `COc1cccc2c1C(=O)c1c(O)c3c(c(O)c1C2=O)CC(O)(C(=O)CO)CC3OC1CC(N)C(O)C(C)O1` (centres undefined) + CNC(=O)c1ccc(Nc2nc(OC3CCCC3)c3c(-c4ccc5nc(C)oc5c4)c[nH]c3n2)c(OC)c1 was 12.9%.

Still in this experiment, the particulars now being: second compound 0.0316 µM; first compound 3.16 µM; active compounds read low.
As for `O=c1[nH]cc(F)c(=O)[nH]1` + CNC(=O)c1ccc(Nc2nc(OC3CCCC3)c3c(-c4ccc5nc(C)oc5c4)c[nH]c3n2)c(OC)c1, the viability, T/C is 72.9%.
Turning to `CC1COCCN1c1cc(C2(S(C)(=N)=O)CC2)nc(-c2ccnc3[nH]ccc23)n1` (centres undefined) + CN1CCN(c2cc(C(=O)Nc3cc4cc(-c5cnn(C)c5)ccc4cn3)ccn2)CC1, the viability, T/C was 45.9%.
`COC1C=CCC(C)C(C)S(=O)(=O)NC(=O)c2ccc3c(c2)N(CC2CCC21)CC1(CCCc2cc(Cl)ccc21)CO3` (centres undefined) + CNC(=O)c1ccc(Nc2nc(OC3CCCC3)c3c(-c4ccc5nc(C)oc5c4)c[nH]c3n2)c(OC)c1: the viability, T/C was 48.4%.
Take `COc1cccc2c1C(=O)c1c(O)c3c(c(O)c1C2=O)CC(O)(C(=O)CO)CC3OC1CC(N)C(O)C(C)O1` (centres undefined) + CNC(=O)c1ccc(Nc2nc(OC3CCCC3)c3c(-c4ccc5nc(C)oc5c4)c[nH]c3n2)c(OC)c1: the viability, T/C is 19.5%.

Staying with this experiment, now noted: second compound 0.0316 µM; first compound 10 µM; active compounds read low.
On to `O=c1[nH]cc(F)c(=O)[nH]1` + CNC(=O)c1ccc(Nc2nc(OC3CCCC3)c3c(-c4ccc5nc(C)oc5c4)c[nH]c3n2)c(OC)c1, for which the viability, T/C was 60.6%.
Same read-out and setting: the value for `CC1COCCN1c1cc(C2(S(C)(=N)=O)CC2)nc(-c2ccnc3[nH]ccc23)n1` (centres undefined) + CN1CCN(c2cc(C(=O)Nc3cc4cc(-c5cnn(C)c5)ccc4cn3)ccn2)CC1 was 46.1%; that for `COC1C=CCC(C)C(C)S(=O)(=O)NC(=O)c2ccc3c(c2)N(CC2CCC21)CC1(CCCc2cc(Cl)ccc21)CO3` (centres undefined) + CNC(=O)c1ccc(Nc2nc(OC3CCCC3)c3c(-c4ccc5nc(C)oc5c4)c[nH]c3n2)c(OC)c1 was 43.5%.
On the same count and under the same terms, the value for `COc1cccc2c1C(=O)c1c(O)c3c(c(O)c1C2=O)CC(O)(C(=O)CO)CC3OC1CC(N)C(O)C(C)O1` (centres undefined) + CNC(=O)c1ccc(Nc2nc(OC3CCCC3)c3c(-c4ccc5nc(C)oc5c4)c[nH]c3n2)c(OC)c1 was 11.4%.

Still in this experiment, the particulars now being: second compound 0.1 µM; first compound 0.0316 µM; active compounds read low.
Regarding `O=c1[nH]cc(F)c(=O)[nH]1` + CNC(=O)c1ccc(Nc2nc(OC3CCCC3)c3c(-c4ccc5nc(C)oc5c4)c[nH]c3n2)c(OC)c1, the viability, T/C is 59.1%.
As to `CC1COCCN1c1cc(C2(S(C)(=N)=O)CC2)nc(-c2ccnc3[nH]ccc23)n1` (centres undefined) + CN1CCN(c2cc(C(=O)Nc3cc4cc(-c5cnn(C)c5)ccc4cn3)ccn2)CC1, the viability, T/C was 68.2%.
With `COC1C=CCC(C)C(C)S(=O)(=O)NC(=O)c2ccc3c(c2)N(CC2CCC21)CC1(CCCc2cc(Cl)ccc21)CO3` (centres undefined) + CNC(=O)c1ccc(Nc2nc(OC3CCCC3)c3c(-c4ccc5nc(C)oc5c4)c[nH]c3n2)c(OC)c1, the viability, T/C was 58.7%.
Still for that read-out and setting: the value for `COc1cccc2c1C(=O)c1c(O)c3c(c(O)c1C2=O)CC(O)(C(=O)CO)CC3OC1CC(N)C(O)C(C)O1` (centres undefined) + CNC(=O)c1ccc(Nc2nc(OC3CCCC3)c3c(-c4ccc5nc(C)oc5c4)c[nH]c3n2)c(OC)c1 was 49.7%.

The experiment is the same for the next values; noted with them: second compound 0.1 µM; first compound 0.1 µM; active compounds read low.
Turning to `O=c1[nH]cc(F)c(=O)[nH]1` + CNC(=O)c1ccc(Nc2nc(OC3CCCC3)c3c(-c4ccc5nc(C)oc5c4)c[nH]c3n2)c(OC)c1, the viability, T/C was 52.6%.
Same read-out and setting: the value for `CC1COCCN1c1cc(C2(S(C)(=N)=O)CC2)nc(-c2ccnc3[nH]ccc23)n1` (centres undefined) + CN1CCN(c2cc(C(=O)Nc3cc4cc(-c5cnn(C)c5)ccc4cn3)ccn2)CC1 was 75.6%; that for `COC1C=CCC(C)C(C)S(=O)(=O)NC(=O)c2ccc3c(c2)N(CC2CCC21)CC1(CCCc2cc(Cl)ccc21)CO3` (centres undefined) + CNC(=O)c1ccc(Nc2nc(OC3CCCC3)c3c(-c4ccc5nc(C)oc5c4)c[nH]c3n2)c(OC)c1 was 51%.
On the same count and under the same terms, the value for `COc1cccc2c1C(=O)c1c(O)c3c(c(O)c1C2=O)CC(O)(C(=O)CO)CC3OC1CC(N)C(O)C(C)O1` (centres undefined) + CNC(=O)c1ccc(Nc2nc(OC3CCCC3)c3c(-c4ccc5nc(C)oc5c4)c[nH]c3n2)c(OC)c1 was 62.8%.

The same experiment, now with this note: second compound 0.1 µM; first compound 0.316 µM; active compounds read low.
As to `O=c1[nH]cc(F)c(=O)[nH]1` + CNC(=O)c1ccc(Nc2nc(OC3CCCC3)c3c(-c4ccc5nc(C)oc5c4)c[nH]c3n2)c(OC)c1, the viability, T/C was 62.2%.
Consider `CC1COCCN1c1cc(C2(S(C)(=N)=O)CC2)nc(-c2ccnc3[nH]ccc23)n1` (centres undefined) + CN1CCN(c2cc(C(=O)Nc3cc4cc(-c5cnn(C)c5)ccc4cn3)ccn2)CC1, for which the viability, T/C is 59%.
Turning to `COC1C=CCC(C)C(C)S(=O)(=O)NC(=O)c2ccc3c(c2)N(CC2CCC21)CC1(CCCc2cc(Cl)ccc21)CO3` (centres undefined) + CNC(=O)c1ccc(Nc2nc(OC3CCCC3)c3c(-c4ccc5nc(C)oc5c4)c[nH]c3n2)c(OC)c1, the viability, T/C was 47.7%.
Regarding `COc1cccc2c1C(=O)c1c(O)c3c(c(O)c1C2=O)CC(O)(C(=O)CO)CC3OC1CC(N)C(O)C(C)O1` (centres undefined) + CNC(=O)c1ccc(Nc2nc(OC3CCCC3)c3c(-c4ccc5nc(C)oc5c4)c[nH]c3n2)c(OC)c1, the viability, T/C is 91.8%.

The same experiment, now with this note: second compound 0.1 µM; first compound 1 µM; active compounds read low.
Take `O=c1[nH]cc(F)c(=O)[nH]1` + CNC(=O)c1ccc(Nc2nc(OC3CCCC3)c3c(-c4ccc5nc(C)oc5c4)c[nH]c3n2)c(OC)c1: the viability, T/C was 52.7%.
Same read-out and setting: the value for `CC1COCCN1c1cc(C2(S(C)(=N)=O)CC2)nc(-c2ccnc3[nH]ccc23)n1` (centres undefined) + CN1CCN(c2cc(C(=O)Nc3cc4cc(-c5cnn(C)c5)ccc4cn3)ccn2)CC1 was 53.6%; that for `COC1C=CCC(C)C(C)S(=O)(=O)NC(=O)c2ccc3c(c2)N(CC2CCC21)CC1(CCCc2cc(Cl)ccc21)CO3` (centres undefined) + CNC(=O)c1ccc(Nc2nc(OC3CCCC3)c3c(-c4ccc5nc(C)oc5c4)c[nH]c3n2)c(OC)c1 was 40.3%.
As for `COc1cccc2c1C(=O)c1c(O)c3c(c(O)c1C2=O)CC(O)(C(=O)CO)CC3OC1CC(N)C(O)C(C)O1` (centres undefined) + CNC(=O)c1ccc(Nc2nc(OC3CCCC3)c3c(-c4ccc5nc(C)oc5c4)c[nH]c3n2)c(OC)c1, the viability, T/C was 5.99%.

The same experiment, now with this note: second compound 0.1 µM; first compound 3.16 µM; active compounds read low.
`O=c1[nH]cc(F)c(=O)[nH]1` + CNC(=O)c1ccc(Nc2nc(OC3CCCC3)c3c(-c4ccc5nc(C)oc5c4)c[nH]c3n2)c(OC)c1: the viability, T/C is 60.4%.
Turning to `CC1COCCN1c1cc(C2(S(C)(=N)=O)CC2)nc(-c2ccnc3[nH]ccc23)n1` (centres undefined) + CN1CCN(c2cc(C(=O)Nc3cc4cc(-c5cnn(C)c5)ccc4cn3)ccn2)CC1, the viability, T/C was 45.4%.
On the same count and under the same terms, the value for `COC1C=CCC(C)C(C)S(=O)(=O)NC(=O)c2ccc3c(c2)N(CC2CCC21)CC1(CCCc2cc(Cl)ccc21)CO3` (centres undefined) + CNC(=O)c1ccc(Nc2nc(OC3CCCC3)c3c(-c4ccc5nc(C)oc5c4)c[nH]c3n2)c(OC)c1 was 34.8%; that for `COc1cccc2c1C(=O)c1c(O)c3c(c(O)c1C2=O)CC(O)(C(=O)CO)CC3OC1CC(N)C(O)C(C)O1` (centres undefined) + CNC(=O)c1ccc(Nc2nc(OC3CCCC3)c3c(-c4ccc5nc(C)oc5c4)c[nH]c3n2)c(OC)c1 was 11.4%.

Staying with this experiment, now noted: second compound 0.1 µM; first compound 10 µM; active compounds read low.
As for `O=c1[nH]cc(F)c(=O)[nH]1` + CNC(=O)c1ccc(Nc2nc(OC3CCCC3)c3c(-c4ccc5nc(C)oc5c4)c[nH]c3n2)c(OC)c1, the viability, T/C was 49.8%.
The same measure, in the same setting: the value for `CC1COCCN1c1cc(C2(S(C)(=N)=O)CC2)nc(-c2ccnc3[nH]ccc23)n1` (centres undefined) + CN1CCN(c2cc(C(=O)Nc3cc4cc(-c5cnn(C)c5)ccc4cn3)ccn2)CC1 was 41.2%.
`COC1C=CCC(C)C(C)S(=O)(=O)NC(=O)c2ccc3c(c2)N(CC2CCC21)CC1(CCCc2cc(Cl)ccc21)CO3` (centres undefined) + CNC(=O)c1ccc(Nc2nc(OC3CCCC3)c3c(-c4ccc5nc(C)oc5c4)c[nH]c3n2)c(OC)c1: the viability, T/C was 34.3%.
Still for that read-out and setting: the value for `COc1cccc2c1C(=O)c1c(O)c3c(c(O)c1C2=O)CC(O)(C(=O)CO)CC3OC1CC(N)C(O)C(C)O1` (centres undefined) + CNC(=O)c1ccc(Nc2nc(OC3CCCC3)c3c(-c4ccc5nc(C)oc5c4)c[nH]c3n2)c(OC)c1 was 5.02%.

The same experiment, now with this note: second compound 0.316 µM; first compound 0.0316 µM; active compounds read low.
On to `O=c1[nH]cc(F)c(=O)[nH]1` + CNC(=O)c1ccc(Nc2nc(OC3CCCC3)c3c(-c4ccc5nc(C)oc5c4)c[nH]c3n2)c(OC)c1, for which the viability, T/C was 50.9%.
Still for that read-out and setting: the value for `CC1COCCN1c1cc(C2(S(C)(=N)=O)CC2)nc(-c2ccnc3[nH]ccc23)n1` (centres undefined) + CN1CCN(c2cc(C(=O)Nc3cc4cc(-c5cnn(C)c5)ccc4cn3)ccn2)CC1 was 34.3%; that for `COC1C=CCC(C)C(C)S(=O)(=O)NC(=O)c2ccc3c(c2)N(CC2CCC21)CC1(CCCc2cc(Cl)ccc21)CO3` (centres undefined) + CNC(=O)c1ccc(Nc2nc(OC3CCCC3)c3c(-c4ccc5nc(C)oc5c4)c[nH]c3n2)c(OC)c1 was 46.3%.
As to `COc1cccc2c1C(=O)c1c(O)c3c(c(O)c1C2=O)CC(O)(C(=O)CO)CC3OC1CC(N)C(O)C(C)O1` (centres undefined) + CNC(=O)c1ccc(Nc2nc(OC3CCCC3)c3c(-c4ccc5nc(C)oc5c4)c[nH]c3n2)c(OC)c1, the viability, T/C was 47%.

Staying with this experiment, now noted: second compound 0.316 µM; first compound 0.1 µM; active compounds read low.
Turning to `O=c1[nH]cc(F)c(=O)[nH]1` + CNC(=O)c1ccc(Nc2nc(OC3CCCC3)c3c(-c4ccc5nc(C)oc5c4)c[nH]c3n2)c(OC)c1, the viability, T/C is 60.5%.
As for `CC1COCCN1c1cc(C2(S(C)(=N)=O)CC2)nc(-c2ccnc3[nH]ccc23)n1` (centres undefined) + CN1CCN(c2cc(C(=O)Nc3cc4cc(-c5cnn(C)c5)ccc4cn3)ccn2)CC1, the viability, T/C is 41.9%.
For the compound `COC1C=CCC(C)C(C)S(=O)(=O)NC(=O)c2ccc3c(c2)N(CC2CCC21)CC1(CCCc2cc(Cl)ccc21)CO3` (centres undefined) + CNC(=O)c1ccc(Nc2nc(OC3CCCC3)c3c(-c4ccc5nc(C)oc5c4)c[nH]c3n2)c(OC)c1, the viability, T/C is 49.7%.
The same measure, in the same setting: the value for `COc1cccc2c1C(=O)c1c(O)c3c(c(O)c1C2=O)CC(O)(C(=O)CO)CC3OC1CC(N)C(O)C(C)O1` (centres undefined) + CNC(=O)c1ccc(Nc2nc(OC3CCCC3)c3c(-c4ccc5nc(C)oc5c4)c[nH]c3n2)c(OC)c1 was 47.1%.
